Experimental data: ChEMBL document CHEMBL1201862, “PubChem BioAssay data set” (2004)
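Cultured in 96-well plates, cells were exposed to test compound for 48 hours across five concentrations. At the GI50, growth is halved.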 Calls of active or inactive are those of the source. No stated cut-off is given here; in the data, active = GI50 up to about 1.1 µM and inactive = higher. Non-standard residues stand in square brackets, D forms with d. Residues, ends and D or L forms follow the SMILES beside them. *: point of attachment. Ac5c = NC1(C(=O)O)CCCC1; Cbz = O=C(OCc1ccccc1)*; Boc = CC(C)(C)OC(=O)*; tBu = CC(C)(C)*

Legend:
Assay in all cases: inhibition of tumour cell growth, NCI panel, 48 h
M14 = system: M14
OVCAR-4 = system: OVCAR-4
U-251 = system: U-251
HOP-62 = system: HOP-62
HCC 2998 = system: HCC 2998
SK-MEL-2 = system: SK-MEL-2
SK-MEL-5 = system: SK-MEL-5
A549 = system: A549
OVCAR-3 = system: OVCAR-3
KM12 = system: KM12
Hs-578T = system: Hs-578T
K562 = system: K562
SF-295 = system: SF-295
SNB-19 = system: SNB-19
HCT-15 = system: HCT-15
LOX IMVI = system: LOX IMVI
OVCAR-5 = system: OVCAR-5
PC-3 = system: PC-3
CCRF-CEM = system: CCRF-CEM
UACC-62 = system: UACC-62

Row | SMILES | GI50 (M14) | GI50 (OVCAR-4) | GI50 (U-251) | GI50 (HOP-62) | GI50 (HCC 2998) | GI50 (SK-MEL-2) | GI50 (SK-MEL-5) | GI50 (A549) | GI50 (OVCAR-3) | GI50 (KM12) | GI50 (Hs-578T) | GI50 (K562) | GI50 (SF-295) | GI50 (SNB-19) | GI50 (HCT-15) [µM] | GI50 (LOX IMVI) | GI50 (OVCAR-5) | GI50 (PC-3) | GI50 (CCRF-CEM) | GI50 (UACC-62)
1 | C=C1CC(C)(COc2ccc3ccc(=O)oc3c2)OC1=O (stereo not given) | 1.14 µM (inactive) | 2.84 µM (inactive) | 13 µM (inactive) | 16 µM (inactive) | 2.18 µM (inactive) | 1.31 µM (inactive) | 2.34 µM (inactive) | 13.5 µM (inactive) | 3.72 µM (inactive) | 4.07 µM (inactive) | 4.91 µM (inactive) | 0.581 µM (active) | 5.68 µM (inactive) | 18.7 µM (inactive) | 2.61 | 1.35 µM (inactive) | 6.73 µM (inactive) | 3.48 µM (inactive) | 0.402 µM (active) | 2.94 µM (inactive)
2 | COc1ccc2nc3c([N+](=O)[O-])ccc4c3c(c2c1)N=CN4CCCN(C)C | 4.73 µM (inactive) | 1.65 µM (inactive) | 1.65 µM (inactive) | 1.2 µM (inactive) | 1.37 µM (inactive) | 7.71 µM (inactive) | 3.24 µM (inactive) | 0.716 µM (active) | 2.91 µM (inactive) | 1.24 µM (inactive) | 7.28 µM (inactive) | 0.488 µM (active) | 2.55 µM (inactive) | 4.74 µM (inactive) | 0.53 | 2.01 µM (inactive) | 10.2 µM (inactive) | 1.21 µM (inactive) | 0.807 µM (active) | 6.24 µM (inactive)
3 | CCOC(=O)C1C(=O)C=C(c2cc(C)ccc2O)CC1c1cccc(Cl)c1 (stereo not given) | 30.1 µM (inactive) | 17.5 µM (inactive) | 18.5 µM (inactive) | 40.2 µM (inactive) | 24.5 µM (inactive) | 16.7 µM (inactive) | 19.2 µM (inactive) | 19 µM (inactive) | 32 µM (inactive) | 16.3 µM (inactive) | 21 µM (inactive) | 12.9 µM (inactive) | 23.9 µM (inactive) | 19.6 µM (inactive) | 3.13 | 24.2 µM (inactive) | 43.7 µM (inactive) | 11.5 µM (inactive) | 19.8 µM (inactive) | 13.9 µM (inactive)
4 | COc1ccc2ccccc2c1/C=C/C(=O)c1ccccc1 | 3.13 µM (inactive) | 2.74 µM (inactive) | 1.95 µM (inactive) | 2.68 µM (inactive) | 1.66 µM (inactive) | 1.56 µM (inactive) | 4.19 µM (inactive) | 2.65 µM (inactive) | 2.32 µM (inactive) | 2.51 µM (inactive) | 2.92 µM (inactive) | 1.93 µM (inactive) | 3.75 µM (inactive) | 3.24 µM (inactive) | 2.9 | 2.77 µM (inactive) | 7.57 µM (inactive) | 4 µM (inactive) | 1.65 µM (inactive) | 2.89 µM (inactive)
5 | COc1cc2c(cc1OCCCC(=O)Nc1cc(C(=O)Nc3cc(C(=O)Nc4cc(C(=O)NCCCN(C)C)n(C)n4)n(C)c3)n(C)c1)N=CC1CCCN1C2=O (stereo not given) | 24.3 µM (inactive) | 20.1 µM (inactive) | 23.9 µM (inactive) | 25.8 µM (inactive) | 28.1 µM (inactive) | 23.1 µM (inactive) | 19.5 µM (inactive) | 49.3 µM (inactive) | 40.3 µM (inactive) | 24 µM (inactive) | 22.1 µM (inactive) | 5.2 µM (inactive) | 31.4 µM (inactive) | 22.5 µM (inactive) | 28.5 | 18.7 µM (inactive) | 40 µM (inactive) | 23.6 µM (inactive) | 4.31 µM (inactive) | 19.1 µM (inactive)
6 | COC(=O)C1(NC(=O)C(Cc2ccccc2)NC(=O)C(NC(=O)C(CCCCNC(=O)OC(C)(C)C)NC(=O)C(Cc2c[nH]c3ccccc23)NC(=O)C(Cc2ccccc2)NC(=O)OCc2ccccc2)C(C)OC(C)(C)C)CCCC1 (stereo not given) (Cbz-FWK(Boc)T(tBu)F[Ac5c]-OMe; configuration not given here) | 18.9 µM (inactive) | > 100 µM (inactive) | 34 µM (inactive) | 65 µM (inactive) | > 100 µM (inactive) | 6.61 µM (inactive) | 3.96 µM (inactive) | > 100 µM (inactive) | > 100 µM (inactive) | > 100 µM (inactive) | > 100 µM (inactive) | > 100 µM (inactive) | > 100 µM (inactive) | 52.2 µM (inactive) | > 100 | 80.9 µM (inactive) | 64.1 µM (inactive) | > 100 µM (inactive) | 98.9 µM (inactive) | > 100 µM (inactive)
7 | COc1ccc(C2C=C(c3ccc(C)cc3)N(c3ccc(OC)cc3[N+](=O)[O-])C3C(=O)OC(=O)C23)c(OC)c1 (stereo not given) | 34.3 µM (inactive) | 62.5 µM (inactive) | 45.9 µM (inactive) | 96.6 µM (inactive) | 29.9 µM (inactive) | 24 µM (inactive) | 64.6 µM (inactive) | 37 µM (inactive) | 20.2 µM (inactive) | 7.8 µM (inactive) | 22.5 µM (inactive) | 37.8 µM (inactive) | 43.9 µM (inactive) | 47 µM (inactive) | 33.5 | 25.5 µM (inactive) | 48.3 µM (inactive) | 42.4 µM (inactive) | 35.1 µM (inactive) | 49.4 µM (inactive)
